US20180201592A1, “2-AMINO-1,3,4-THIADIAZINE AND 2-AMINO-1,3,4-OXADIAZINE BASED ANTIFUNGAL AGENTS” (F2G Limited, priority 2015, published 2018)

Tests used:
Conditions in all cases: banded MIC grade
A. fumigatus 210 = test: Minimum inhibitory concentration, YAG medium; type: cell-based, Aspergillus fumigatus
Description: (§1) Between 1 and 5 mgs of compound were accurately weighed out into a sterile Eppendorf tube. The compound was dissolved in DMSO to give a solution containing 5 mg/mL. Tubes were stored at −20° C. until required.
(§2) On the day of testing thawed solutions were vortex mixed to ensure homogeneity. 30 μL of solution was removed and added to 570 μL of sterile water in a separate sterile Eppendorf. The thoroughly mixed solution was used to prepare a series of doubling dilutions in water, in a deep well plate. Thirteen replicate plates were prepared using a Minitrak by aspirating 20 μL from each well into eleven clear polystyrene 96 well plates.
(§3) Spores of Aspergillus spp. (Aspergillus fumigatus [two strains], Aspergillus terreus [two strains], Aspergillus niger and Aspergillus flavus) were harvested from cultures grown on Sabarauds agar for 5 days, and resuspended in PBS/Tween 80 to approx 1×10^7 cfu/mL. Each organism suspension was diluted in YAG medium (1% glucose, 1% ammonium chloride and 0.5% yeast extract) to 0.5-2×10^4cfu/mL. 80 μL of an organism suspension was added to each well of the plate containing drug dilutions.
(§4) This typically produced MIC plates with a drug range 50-0.05 mg/L and organism inocula of 1-2×10^4 cfu/mL for Aspergillus spp. All plates were incubated for 24 hrs at 35° C. Growth was assessed by monitoring the optical density at 485 nm for each well. The MIC of a compound is the lowest drug concentration that inhibits growth of an organism by >70% compared with a drug free control. MICs are recorded as mg/L. In cases where the MIC of an organism is […] the MIC is repeated using a concentration range of 0.5-0.0005 mg/L.

A. terreus 49 = test: Minimum inhibitory concentration, YAG medium; type: cell-based, Aspergillus terreus
Description: (§5) The compound was dissolved in DMSO to give a solution containing 5 mg/mL. Tubes were stored at −20° C. until required. On the day of testing thawed solutions were vortex mixed to ensure homogeneity. 30 μL of solution was removed and added to 570 μL of sterile water in a separate sterile Eppendorf. The thoroughly mixed solution was used to prepare a series of doubling dilutions in water, in a deep well plate. Thirteen replicate plates were prepared using a Minitrak by aspirating 20 μL from each well into eleven clear polystyrene 96 well plates. Spores of Aspergillus spp. […] All plates were incubated for 24 hrs at 35° C. Growth was assessed by monitoring the optical density at 485 nm for each well. […] MICs are recorded as mg/L.

C. parapsilosis = test: Minimum inhibitory concentration, RPMI medium; type: cell-based
Description: as §5, with “Assays were also performed in RPMI medium (Roswell Park Memorial Media 1640). To perform MIC tests in this medium, dilutions” for “Spores”, “compounds are prepared in microtitre plates as described above.” for “Aspergillus spp.”, “24-48” for “24”, “The following organisms were tested: […]” for “MICs are recorded as mg/L.”

C. albicans = test: Minimum inhibitory concentration, RPMI medium; type: cell-based
Description: as §5, with “Assays were also performed in RPMI medium (Roswell Park Memorial Media 1640). To perform MIC tests in this medium, dilutions” for “Spores”, “compounds are prepared in microtitre plates as described above.” for “Aspergillus spp.”, “24-48” for “24”, “The following organisms were tested: […]” for “MICs are recorded as mg/L.”

C. tropicalis = test: Minimum inhibitory concentration, RPMI medium; type: cell-based
Description: as §5, with “Assays were also performed in RPMI medium (Roswell Park Memorial Media 1640). To perform MIC tests in this medium, dilutions” for “Spores”, “compounds are prepared in microtitre plates as described above.” for “Aspergillus spp.”, “24-48” for “24”, “The following organisms were tested: […]” for “MICs are recorded as mg/L.”

Aspergillus flavus = test: Minimum inhibitory concentration, YAG medium; type: cell-based
Description: as §5

Aspergillus niger = test: Minimum inhibitory concentration, YAG medium; type: cell-based
Description: as §5

Aspergillus terreus = test: Minimum inhibitory concentration, YAG medium; type: cell-based
Description: as §5

Aspergillus fumigatus = test: Minimum inhibitory concentration, YAG medium; type: cell-based
Description: as §1, §2, §3, §4

Compound	MIC grade, A. FUMIGATUS 210, YAG media (A. fumigatus 210)	MIC grade, A. TERREUS 49, YAG media (A. terreus 49)	MIC grade, C. PARAPSILOSIS, RPMI media (C. parapsilosis)	MIC grade, C. ALBICANS, RPMI media (C. albicans)	MIC grade, C. TROPICALIS, RPMI media (C. tropicalis)	MIC grade, A. FLAVUS, YAG media (Aspergillus flavus)	MIC grade, A. NIGER, YAG media (Aspergillus niger)	MIC grade, A. TERREUS, YAG media (Aspergillus terreus)	MIC grade, A. FUMIGATUS, YAG media (Aspergillus fumigatus)
NC1=NN=C(CCCCCN2C(=O)c3ccccc3C2=O)CS1	4 (4: <0.2 mg/L)	4 (4: <0.2 mg/L)	3 (3: 1-5 mg/L)	1 (1: ≥20 mg/L)	1 (1: ≥20 mg/L)	4 (4: <0.2 mg/L)	4 (4: <0.2 mg/L)	4 (4: <0.2 mg/L)	4 (4: <0.2 mg/L)
NC1=NN=C(CCCCc2cc3ccccc3o2)CS1	3 (3: 0.2-1 mg/L)	3 (3: 0.2-1 mg/L)	4 (4: <1 mg/L)	3 (3: 1-5 mg/L)	3 (3: 1-5 mg/L)	4 (4: <0.2 mg/L)	3 (3: 0.2-1 mg/L)	4 (4: <0.2 mg/L)	3 (3: 0.2-1 mg/L)
COCCCCC1=NN=C(N)SC1	4 (4: <0.2 mg/L)	3 (3: 0.2-1 mg/L)	4 (4: <1 mg/L)	3 (3: 1-5 mg/L)	3 (3: 1-5 mg/L)	3 (3: 0.2-1 mg/L)	3 (3: 0.2-1 mg/L)	3 (3: 0.2-1 mg/L)	3 (3: 0.2-1 mg/L)
NC1=NN=C(CCCCCc2ccccn2)CS1	4 (4: <0.2 mg/L)	4 (4: <0.2 mg/L)	3 (3: 1-5 mg/L)	2 (2: 5-20 mg/L)	2 (2: 5-20 mg/L)	3 (3: 0.2-1 mg/L)	4 (4: <0.2 mg/L)	3 (3: 0.2-1 mg/L)	3 (3: 0.2-1 mg/L)
NC1=NN=C(CCCCCOc2ccc(F)cc2)CS1	4 (4: <0.2 mg/L)	4 (4: <0.2 mg/L)	4 (4: <1 mg/L)	4 (4: <1 mg/L)	4 (4: <1 mg/L)	4 (4: <0.2 mg/L)	4 (4: <0.2 mg/L)	4 (4: <0.2 mg/L)	4 (4: <0.2 mg/L)
CN(CCCCCC1=NN=C(N)SC1)c1ccccc1	2 (2: 1-5 mg/L)	3 (3: 0.2-1 mg/L)	2 (2: 5-20 mg/L)	1 (1: ≥20 mg/L)	1 (1: ≥20 mg/L)	3 (3: 0.2-1 mg/L)	3 (3: 0.2-1 mg/L)	3 (3: 0.2-1 mg/L)	2 (2: 1-5 mg/L)
NC1=NN=C(CCCCCOCc2ccccc2)CS1	4 (4: <0.2 mg/L)	4 (4: <0.2 mg/L)	4 (4: <1 mg/L)	3 (3: 1-5 mg/L)	3 (3: 1-5 mg/L)	4 (4: <0.2 mg/L)	3 (3: 0.2-1 mg/L)	3 (3: 0.2-1 mg/L)	4 (4: <0.2 mg/L)
COCCCCCC1=CSC(=N)NN1C	4 (4: <0.2 mg/L)	4 (4: <0.2 mg/L)	4 (4: <1 mg/L)	4 (4: <1 mg/L)	3 (3: 1-5 mg/L)	4 (4: <0.2 mg/L)	3 (3: 0.2-1 mg/L)	3 (3: 0.2-1 mg/L)	3 (3: 0.2-1 mg/L)
COCCCCCCC1=NN=C(N)SC1	4 (4: <0.2 mg/L)	4 (4: <0.2 mg/L)	4 (4: <1 mg/L)	4 (4: <1 mg/L)	3 (3: 1-5 mg/L)	4 (4: <0.2 mg/L)	4 (4: <0.2 mg/L)	4 (4: <0.2 mg/L)	4 (4: <0.2 mg/L)
COCCCCCCCC1=NN=C(N)SC1	4 (4: <0.2 mg/L)	4 (4: <0.2 mg/L)	4 (4: <1 mg/L)	4 (4: <1 mg/L)	4 (4: <1 mg/L)	4 (4: <0.2 mg/L)	4 (4: <0.2 mg/L)	4 (4: <0.2 mg/L)	4 (4: <0.2 mg/L)
NC1=NN=C(CCCCCCCOc2ccccc2)CS1	3 (3: 0.2-1 mg/L)	4 (4: <0.2 mg/L)	4 (4: <1 mg/L)	3 (3: 1-5 mg/L)	3 (3: 1-5 mg/L)	4 (4: <0.2 mg/L)	4 (4: <0.2 mg/L)	4 (4: <0.2 mg/L)	4 (4: <0.2 mg/L)
CCCCC/C=C/C1=NN=C(N)SC1	2 (2: 1-5 mg/L)	2 (2: 1-5 mg/L)	2 (2: 5-20 mg/L)	2 (2: 5-20 mg/L)	1 (1: ≥20 mg/L)	2 (2: 1-5 mg/L)	2 (2: 1-5 mg/L)	2 (2: 1-5 mg/L)	2 (2: 1-5 mg/L)
NC1=NN=C(CCCCCC(=O)O)CS1	2 (2: 1-5 mg/L)	2 (2: 1-5 mg/L)	1 (1: ≥20 mg/L)	1 (1: ≥20 mg/L)	1 (1: ≥20 mg/L)	2 (2: 1-5 mg/L)	2 (2: 1-5 mg/L)	2 (2: 1-5 mg/L)	2 (2: 1-5 mg/L)
CCCCOCCC1=CNN=C(N)S1	2 (2: 1-5 mg/L)	2 (2: 1-5 mg/L)	1 (1: ≥20 mg/L)	1 (1: ≥20 mg/L)	1 (1: ≥20 mg/L)	2 (2: 1-5 mg/L)	1 (1: ≥5 mg/L)	2 (2: 1-5 mg/L)	2 (2: 1-5 mg/L)
CCOC(=O)CCCCCC1=NN=C(N)SC1	4 (4: <0.2 mg/L)	4 (4: <0.2 mg/L)	4 (4: <1 mg/L)	4 (4: <1 mg/L)	3 (3: 1-5 mg/L)	4 (4: <0.2 mg/L)	4 (4: <0.2 mg/L)	4 (4: <0.2 mg/L)	3 (3: 0.2-1 mg/L)
CC(C)OC(=O)CC1=NN=C(N)SC1	–	–	2 (2: 5-20 mg/L)	1 (1: ≥20 mg/L)	1 (1: ≥20 mg/L)	–	–	–	–
